In patent publication US7960556B2, “Thiadiazole derivatives for the treatment of neuro-degenerative diseases” (NV reMYND, priority 2006, dated 2011) one finds EC50 and Emax data, which are given here for 35 compounds.

This assay concerns α-synuclein cytotoxicity in M17-SYNwt cells. Put plainly: α-synuclein cytotoxicity assay: LDH leakage from paraquat-treated M17-SYNwt neuroblastoma cells.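 As to all read-outs here: paraquat at 32 mM co-added with compound, 40 h exposure, LDH activity released into the culture medium measured, references are DMSO-only cells and paraquat plus DMSO cells.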 The following applies: Homo sapiens, Neuroblastoma cell; for Emax: read-out: % Inhib. (Release of lactate dehydrogenase indicates damage to the cell membrane.)

Molecules are shown by their SMILES. pEC50: −log10 of the molar value.

As a reminder, the pEC50 is −log10 of the EC50, conventionally taken in molar units. As to `CCc1ccc(S(=O)(=O)N2CCN(c3nc(Cc4ccc(F)cc4)ns3)CC2)cc1` [compound 197, 1-[4-ethylphenylsulfonyl]-4-[3-(4-fluoro-benzyl)-1,2,4-thiadiazol-5-yl]piperazine], the pEC50 was 6.27 and the Emax stood at 84%.

With `O=C(c1ccccc1F)N1CCN(c2nc(Cc3ccc(Cl)cc3)ns2)CC1` [compound 159, 1-(2-fluorobenzoyl)-4-[3-(4-chlorobenzyl)-1,2,4-thiadiazol-5-yl]piperazine], the pEC50 was 5.55 and the Emax stood at 48%.

In the case of `CC1CN(c2nc(Cc3ccc(F)cc3)ns2)CCN1C(=O)c1ccc(F)cc1` (centres unmarked) [compound 127, 1-(4-fluorobenzoyl)-4-[3-(4-fluorobenzyl)-1,2,4-thiadiazol-5-yl]-2-methylpiperazine], the pEC50 was 6.64 and the Emax was 108%.

As to `O=C(Nc1ccc(F)c(F)c1)N1CCN(c2nc(Cc3ccc(F)cc3)ns2)CC1` [compound 28, N-(3,4-difluorophenyl)-4-[3-(4-fluorobenzyl)-1,2,4-thiadiazol-5-yl]piperazine-1-carboxamide], the Emax worked out at 64%.

For `Cc1ccc(Cc2nsc(N3CCN(C(=O)Cc4ccc(F)cc4)C(C)C3)n2)cc1` (centres unmarked) [compound 3, 1-(4-fluorophenylacetyl)-4-[3-(4-methylbenzyl)-1,2,4-thiadiazol-5-yl]-2-methylpiperazine], the negative logarithm of the EC50 (pEC50) is 5.66 and the Emax was 76%. For `COc1ccc(S(=O)(=O)N2CCN(c3nc(Cc4ccccc4F)ns3)CC2)cc1` [compound 194, 1-[4-methoxyphenylsulfonyl]-4-[3-(2-fluoro-benzyl)-1,2,4-thiadiazol-5-yl]piperazine], in that order: 8.57 and 102%. With `COc1cccc(S(=O)(=O)N2CCN(c3nc(Cc4ccc(F)cc4)ns3)CC2)c1` [compound 44, 1-[3-methoxyphenylsulfonyl]-4-[3-(4-fluorobenzyl)-1,2,4-thiadiazol-5-yl]piperazine], the pEC50 was 6.89 and the Emax was 99%. On to `O=C(Nc1ccccc1C(F)(F)F)N1CCN(c2nc(Cc3ccc(F)cc3)ns2)CC1` [compound 17, N-(2-trifluoromethylphenyl)-4-[3-(4-fluorobenzyl)-1,2,4-thiadiazol-5-yl]piperazine-1-carboxamide], for which the Emax worked out at 46%. Turning to `Cc1ccc(Cc2nsc(N3CCN(S(=O)(=O)c4c(C)cc(C)cc4C)C(C)C3)n2)cc1` (centres unmarked) [compound 45, 1-[2,4,6-trimethylphenylsulfonyl]-4-[3-(4-methylbenzyl)-1,2,4-thiadiazol-5-yl]-2-methylpiperazine], the pEC50 was 5.92 and the Emax amounted to 56%.

Turning to `COc1ccc(S(=O)(=O)N2CCN(c3nc(Cc4cccc(F)c4)ns3)CC2)cc1` [compound 193, 1-[4-methoxyphenylsulfonyl]-4-[3-(3-fluoro-benzyl)-1,2,4-thiadiazol-5-yl]piperazine], the negative logarithm of the EC50 (pEC50) was 7.97 and the Emax came to 68%. Turning to `CC1CN(c2nc(Cc3ccc(F)cc3)ns2)CCN1C(=O)Nc1cccc2ccccc12` (centres unmarked) [compound 25, N-1-naphtyl-4-[3-(4-fluorobenzyl)-1,2,4-thiadiazol-5-yl]-2-methylpiperazine-1-carboxamide], the pEC50 was 5.77 and the Emax stood at 97%. Take `Cc1ccc(Cc2nsc(N3CCN(C(=O)c4cccc(F)c4)CC3)n2)cc1` [compound 162, 1-(3-flurorbenzoyl)-4-[3-(4-methylbenzyl)-1,2,4-thiadiazol-5-yl]piperazine]: the pEC50 was 5.47 and the Emax turned out to be 101%. For `O=S(=O)(c1ccccc1)N1CCN(c2nc(Cc3ccc(F)cc3)ns2)CC1` [compound 198, 1-phenylsulfonyl-4-[3-(4-fluoro-benzyl)-1,2,4-thiadiazol-5-yl]piperazine], in that order: 6.46 and 25%. For `CCOc1ccc(S(=O)(=O)N2CCN(c3nc(Cc4ccc(F)cc4)ns3)CC2)cc1` [compound 196, 1-[4-ethoxyphenylsulfonyl]-4-[3-(4-fluoro-benzyl)-1,2,4-thiadiazol-5-yl]piperazine], in that order: 7.75 and 42%. The like results for `Cc1ccc(Cc2nsc(N3CCN(C(=O)c4ccc(Br)cc4)CC3)n2)cc1` [compound 164, 1-(4-bromobenzoyl)-4-[3-(4-methylbenzyl)-1,2,4-thiadiazol-5-yl]piperazine] were, in that order, 5.41 and 60%. `CC1CN(c2nc(Cc3ccc(F)cc3)ns2)CCN1C(=O)c1cccc(Br)c1` (centres unmarked) [compound 142, 1-(3-bromobenzoyl)-4-[3-(4-fluorobenzyl)-1,2,4-thiadiazol-5-yl]-2-methylpiperazine]: the negative logarithm of the EC50 (pEC50) is 6.30 and the Emax is 72%.

Regarding `CCc1ccc(C(=O)N2CCN(c3nc(Cc4ccc(C)cc4)ns3)CC2C)cc1` (centres unmarked) [compound 147, 1-(4-ethylbenzoyl)-4-[3-(4-methylbenzyl)-1,2,4-thiadiazol-5-yl]-2-methylpiperazine], the negative logarithm of the EC50 (pEC50) was 6.08 and the Emax amounted to 88%.

`Cc1ccc(Cc2nsc(N3CCN(C/C=C/c4ccccc4)CC3)n2)cc1` [compound 91, 1-[3-phenylprop-2-enyl]-4-[3-(4-methylbenzyl)-1,2,4-thiadiazol-5-yl]piperazine]: the pEC50 was 6.15 and the Emax worked out at 90%.

As to `CC1CN(c2nc(Cc3ccc(F)cc3)ns2)CCN1C(=O)Cc1ccc(F)cc1` (centres unmarked) [compound 6], the Emax was 75%. The same measure, in the same setting: under `Cc1ccc(Cc2nsc(N3CCN(S(=O)(=O)c4ccc(C(C)(C)C)cc4)CC3)n2)cc1` [compound 67, 1-[4-tert-butylphenylsulfonyl]-4-[3-(4-methylbenzyl)-1,2,4-thiadiazol-5-yl]piperazine] stands 41%. On the same count and under the same terms, under `CC1CN(c2nc(Cc3ccc(F)cc3)ns2)CCN1C(=O)c1cccc(F)c1` (centres unmarked) [compound 179, 1-(3-fluorobenzoyl)-4-[3-(4-fluorobenzyl)-1,2,4-thiadiazol-5-yl]-2-methylpiperazine] stands 68%.

In the case of `COc1ccc(S(=O)(=O)N2CCN(c3nc(Cc4ccc(F)cc4)ns3)CC2)cc1` [compound 74, 1-[4-methoxyphenylsulfonyl]-4-[3-(4-fluorobenzyl)-1,2,4-thiadiazol-5-yl]piperazine], the pEC50 was 9.98 and the Emax worked out at 44%. For `O=S(=O)(c1ccc(F)cc1)N1CCN(c2nc(Cc3ccc(Cl)cc3)ns2)CC1` [compound 33, 1-[4-fluorophenylsulfonyl]-4-[3-(4-chlorobenzyl)-1,2,4-thiadiazol-5-yl]piperazine], in that order: 8.55 and 53%.

In the case of `COc1ccccc1S(=O)(=O)N1CCN(c2nc(Cc3ccc(F)cc3)ns2)CC1` [compound 195], the pEC50 is 7.25 and the Emax turned out to be 99%. For `COc1cccc(Cc2nsc(N3CCN(C(=O)c4ccc(C(C)(C)C)cc4)C(C)C3)n2)c1` (centres unmarked) [compound 146, 1-(4-tert-butylbenzoyl)-4-[3-(3-methoxybenzyl)-1,2,4-thiadiazol-5-yl]-2-methylpiperazine], in that order: 6.14 and 94%. Turning to `Cc1ccc(Cc2nsc(N3CCN(S(=O)(=O)c4cccc(C(F)(F)F)c4)C(C)C3)n2)cc1` (centres unmarked) [compound 56, 1-[3-trifluoromethylphenylsulfonyl]-4-[3-(4-methylbenzyl)-1,2,4-thiadiazol-5-yl]-2-methylpiperazine], the Emax worked out at 87%. Take `O=C(Nc1ccccc1)N1CCN(c2nc(Cc3ccc(F)cc3)ns2)CC1` [compound 13, N-phenyl-4-[3-(4-fluorobenzyl)-1,2,4-thiadiazol-5-yl]piperazine-1-carboxamide]: the pEC50 was 5.91 and the Emax worked out at 71%. Take `CC1CN(c2nc(Cc3ccc(F)cc3)ns2)CCN1C(=O)Nc1ccccc1C(F)(F)F` (centres unmarked) [compound 18, N-(2-trifluoromethylphenyl)-4-[3-(4-fluorobenzyl)-1,2,4-thiadiazol-5-yl]-2-methylpiperazine-1-carboxamide]: the Emax was found to be 41%.

Take `CCS(=O)(=O)N1CCN(c2nc(Cc3ccc(Cl)cc3)ns2)CC1` [compound 84, 1-(ethylsulfonyl)-4-[3-(4-chlorobenzyl)-1,2,4-thiadiazol-5-yl]piperazine]: the negative-log EC50 (pEC50) was 5.46 and the Emax is 53%.

`Cc1ccccc1C(=O)N1CCN(c2nc(Cc3ccc(F)cc3)ns2)CC1` [compound 152, 1-(2-methylbenzoyl)-4-[3-(4-fluorobenzyl)-1,2,4-thiadiazol-5-yl]piperazine]: the pEC50 is 5.94 and the Emax was found to be 66%.

As for `Cc1ccc(Cc2nsc(N3CCN(S(=O)(=O)C(C)C)CC3)n2)cc1` [compound 85, 1-(isopropylsulfonyl)-4-[3-(4-methylbenzyl)-1,2,4-thiadiazol-5-yl]piperazine], the negative logarithm of the EC50 (pEC50) was 5.44 and the Emax worked out at 69%. Take `CC(C)(C)c1ccc(S(=O)(=O)N2CCN(c3nc(Cc4ccc(Cl)cc4)ns3)CC2)cc1` [compound 69, 1-[4-tert-butylphenylsulfonyl]-4-[3-(4-chlorobenzyl)-1,2,4-thiadiazol-5-yl]piperazine]: the Emax was 31%.

In the case of `COc1ccc(S(=O)(=O)N2CCN(c3nc(Cc4cccc(OC)c4)ns3)CC2)cc1` [compound 53, 1-[4-methoxyphenylsulfonyl]-4-[3-(3-methoxybenzyl)-1,2,4-thiadiazol-5-yl]piperazine], the negative logarithm of the EC50 (pEC50) is 8.85 and the Emax came to 83%. As for `Cc1ccc(C(=O)N2CCN(c3nc(Cc4ccc(F)cc4)ns3)CC2C)cc1` (centres unmarked) [compound 139, 1-(4-methylbenzoyl)-4-[3-(4-fluorobenzyl)-1,2,4-thiadiazol-5-yl]-2-methylpiperazine], the negative-log EC50 (pEC50) was 6.40 and the Emax stood at 87%. For `CC1CN(c2nc(Cc3ccc(F)cc3)ns2)CCN1C(=O)c1ccccc1Br` (centres unmarked) [compound 148, 1-(2-bromobenzoyl)-4-[3-(4-fluorobenzyl)-1,2,4-thiadiazol-5-yl]-2-methylpiperazine], in that order: 6.07 and 56%.
